Reference: US20150057357A1, “BIS (THIOHYDRAZIDE AMIDE) COMPOUNDS FOR TREATING CANCERS” (The Board of Trustees of The Leland Stanford Junior …, priority 2012, published 2015)

What was measured:
[1] = test system: luminal breast cancer cells (BT474, MDAMB361, T47D); assay: MTT drug sensitivity assay, luminal breast cancer cells; assay type: cell-based, human; conditions: concentrations of up to 1 μM, 96 hours, FIG. 2
From the text: (§1) Human breast cell lines represented the normal breast (MCF12A), basal-like breast cancer (BT549, HCC1806, MDAMB468), BRCA1-mutated breast cancer (HCC1937, SUM149PT, SUM1315MO2), and luminal breast cancer (BT474, MDAMB361, and T47D). Stable cell lines expressing shRNA to hOGG1 (shOGG1) or a non-targeting control (shCTRL) and BRCA1^+/+ and BRCA1^−/− mouse mammary epithelial cells have been previously described (E. Alli, V. B. Sharma, P. Sunderesakumar, J. M. Ford, Defective repair of oxidative dna damage in triple-negative breast cancer confers sensitivity to inhibition of poly(ADP-ribose) polymerase, Cancer Res, 69, 2009, 3589-3596). All cell lines were maintained at 37° C. and 5% CO2.
(§2) Cells were exposed to increasing concentrations of elesclomol and incubated at 37° C. in the presence of 5% CO2 for 96 hours. Cellular sensitivity was then determined by MTT assay and expressed as a percentage of the vehicle control (DMSO). Each data point represents the average of quadruplicate determinations +/−S.D. Images were obtained under 10× objective and are representative.
(§3) Cell lines that represent the normal breast or BRCA1-mutated, basal-like or luminal breast cancers were examined for sensitivity to elesclomol. Shown in FIG. 1 are images of BRCA-1 mutated, basal-like or luminal breast cancer cell cultures after treatment with 0 μM, 0.2 μM or 1 μM elesclomol. […]

[2] = test system: cell lines deficient in the hOOG1 DNA glycosylase (shOGG1-A and sh-OGG1-B); assay: MTT drug sensitivity assay, base excision repair deficient cells; assay type: cell-based; conditions: shOGG1-A and sh-OGG1-B versus isogenic controls shCTRL-A and shCTRL-B; FIG. 3
From the text: as §1, §2
Two different cell lines deficient in the hOOG1 DNA glycosylase that initiates base excision repair (shOGG1-A and sh-OGG1-B) and their isogenic control cells lines (shCTRL-A and shCTRL-B) were examined for sensitivity to elesclomol.

[3] = test system: BRCA1-mutated breast cancer cells (HCC1937, SUM149PT, SUM1315MO2); assay: MTT drug sensitivity assay, BRCA1-mutated breast cancer cells; assay type: cell-based, human
From the text: as §1, §2, §3

[4] = test system: normal breast cells (MCF12A); assay: MTT drug sensitivity assay, normal breast cells; assay type: cell-based, human; conditions: concentrations of up to 1 μM, 96 hours, FIG. 2
From the text: as §1, §2, §3

[5] = test system: basal-like breast cancer cells (BT549, HCC1806, MDAMB468); assay: MTT drug sensitivity assay, basal-like breast cancer cells; assay type: cell-based, human
From the text: as §1, §2, §3

## CN(NC(=O)CC(=O)NN(C)C(=S)c1ccccc1)C(=S)c1ccccc1 [elesclomol]
[1]
  effect of treatment on cells (cell death): remained unaffected
[2]
  sensitivity to elesclomol (cell viability, MTT): increased sensitivity
[3]; BRCA1-mutated breast cancers compared to normal breast cells or luminal breast cancer cells, FIG. 1, FIG. 2
  sensitivity to elesclomol (cellular viability dose-response): increased sensitivity
[3]; concentrations of up to 1 μM, 96 hours, BRCA1-mutated breast cancer cells, FIG. 2
  induced cell death: up to 95%
[4]
  effect of treatment on cells (cell death): remained unaffected
[5]; basal-like breast cancers compared to normal breast cells or luminal breast cancer cells, FIG. 1, FIG. 2
  sensitivity to elesclomol (cellular viability dose-response): increased sensitivity
[5]; concentrations of up to 1 μM, 96 hours, basal-like breast cancer cells, FIG. 2
  induced cell death: up to 75%
